Data on 15 compounds can be found in patent publication US7956074B2, “Aryl-isoxazolo-4-yl-oxadiazole derivatives” (Hoffman-La Roche Inc., priority 2005, dated 2011).

The assay concerns the target T1, GABA A receptor α5β3γ2 (Homo sapiens, UniProt P18507+P31644).
T1 construct: expressed in transfected cells; host or cells: HEK293 cells, transiently transfected; membranes prepared
Put plainly: [3H]flumazenil competition binding, human GABA A α5β3γ2. The note with it: competition for [3H]flumazenil (0.5 nM) binding, HEK293 cells expressing human (transiently transfected) α5β3γ2; means of two determinations; read-out: Ki[nM] hα5. The protocol: Membrane Preparation and Binding Assay
The affinity of compounds at GABA A receptor subtypes was measured by competition for [3H]flumazenil (85 Ci/mmol; Roche) binding to HEK293 cells expressing rat (stably transfected) or human (transiently transfected) receptors of composition
Cell pellets were suspended in Krebs-tris buffer (4.8 mM KCl, 1.2 mM CaCl2, 1.2 mM MgCl2, 120 mM NaCl, 15 mM Tris; pH 7.5; binding assay buffer), homogenized by polytron for ca. 20 sec on ice and centrifuged for 60 min at 4° C. (50000 g; Sorvall, rotor: SM24=20000 rpm). The cell pellets were resuspended in Krebs-tris buffer and homogenized by polytron for ca. 15 sec on ice. Protein was measured (Bradford method, Bio-Rad) and aliquots of 1 mL were prepared and stored at −80° C.
Assays were incubated to equilibrium for 1 hour at 4° C. and harvested onto GF/C uni-filters (Packard) by filtration using a Packard harvester and washing with ice-cold wash buffer (50 mM Tris; pH 7.5). After drying, filter-retained radioactivity was detected by liquid scintillation counting. Ki values were calculated using Excel-Fit (Microsoft) and are the means of two determinations.

For `COc1ccccc1-c1nnc(-c2c(-c3ccccc3)noc2C2CC2)o1` [Example 69, 2-(5-Cyclopropyl-3-phenyl-isoxazol-4-yl)-5-(2-methoxy-phenyl)-[1,3,4]oxadiazole], the Ki amounted to 8.1 nM.

As for `Cc1onc(-c2ccccc2)c1-c1nnc(C2CCCCC2)o1` [Example 70, 2-Cyclohexyl-5-(5-methyl-3-phenyl-isoxazol-4-yl)-[1,3,4]oxadiazole], the Ki turned out to be 262 nM.

`COC(=O)c1ccc(-c2nnc(-c3c(-c4ccccc4)noc3C)o2)cc1` [Example 71, 4-[5-(5-Methyl-3-phenyl-isoxazol-4-yl)-[1,3,4]oxadiazol-2-yl]-benzoic acid methyl ester]: the Ki is 289 nM.

Turning to `COc1cc(N(C)C)ccc1-c1nnc(-c2c(-c3ccccc3)noc2C)o1` [Example 72, {3-Methoxy-4-[5-(5-methyl-3-phenyl-isoxazol-4-yl)-[1,3,4]oxadiazol-2-yl]-phenyl}-dimethyl-amine], the Ki is 12 nM.

Consider `COc1cc(F)ccc1-c1nnc(-c2c(-c3ccccc3)noc2C2CC2)o1` [Example 73, 2-(5-Cyclopropyl-3-phenyl-isoxazol-4-yl)-5-(4-fluoro-2-methoxy-phenyl)-[1,3,4]oxadiazole], for which the Ki is 11.9 nM.

For the compound `Cc1onc(-c2ccccc2)c1-c1nnc(-c2ccc3[nH]ccc3c2)o1` [Example 74, 5-[5-(5-Methyl-3-phenyl-isoxazol-4-yl)-[1,3,4]oxadiazol-2-yl]-1H-indole], the Ki came to 134 nM.

`Cc1onc(-c2ccccc2)c1-c1nnc(-c2ccc3c(ccn3C)c2)o1` [Example 75, 1-Methyl-5-[5-(5-methyl-3-phenyl-isoxazol-4-yl)-[1,3,4]oxadiazol-2-yl]-1H-indole]: the Ki is 129 nM.

`Cc1onc(-c2ccccc2)c1-c1nnc(-c2ccc(F)cc2F)o1` [Example 76, 2-(2,4-Difluoro-phenyl)-5-(5-methyl-3-phenyl-isoxazol-4-yl)-[1,3,4]oxadiazole]: the Ki came to 189 nM.

For `COc1cc(N2CCOCC2)ccc1-c1nnc(-c2c(-c3ccccc3)noc2C2CC2)o1` [Example 77, 4-{4-[5-(5-Cyclopropyl-3-phenyl-isoxazol-4-yl)-[1,3,4]oxadiazol-2-yl]-3-methoxy-phenyl}-morpholine], the Ki is 2.1 nM.

With `Cc1onc(-c2ccccc2)c1-c1nnc(-c2ccc(C(=O)NC3CC3)cc2)o1` [Example 78, N-Cyclopropyl-4-[5-(5-methyl-3-phenyl-isoxazol-4-yl)-[1,3,4]oxadiazol-2-yl]-benzamide], the Ki stood at 42.1 nM.

As for `Cc1onc(-c2ccccc2)c1-c1nnc(-c2ccc(C(=O)N3CCOCC3)cc2)o1` [Example 80, {4-[5-(5-Methyl-3-phenyl-isoxazol-4-yl)-[1,3,4]oxadiazol-2-yl]-phenyl}-morpholin-4-yl-methanone], the Ki is 469 nM.

Turning to `Cc1onc(-c2ccccc2)c1-c1nnc(-c2ccc(C(=O)NC3CCOCC3)cc2)o1` [Example 81, 4-[5-(5-Methyl-3-phenyl-isoxazol-4-yl)-[1,3,4]oxadiazol-2-yl]-N-(tetrahydro-pyran-4-yl)-benzamide], the Ki was 86 nM.

On to `COc1cc(NC2CCOCC2)ccc1-c1nnc(-c2c(-c3ccccc3)noc2C2CC2)o1` [Example 82, {4-[5-(5-Cyclopropyl-3-phenyl-isoxazol-4-yl)-[1,3,4]oxadiazol-2-yl]-3-methoxy-phenyl}-(tetrahydro-pyran-4-yl)-amine], for which the Ki amounted to 3.7 nM.

`Cc1onc(-c2ccccc2)c1-c1nnc(-c2cc(F)ccc2F)o1` [Example 83, 2-(2,5-Difluoro-phenyl)-5-(5-methyl-3-phenyl-isoxazol-4-yl)-[1,3,4]oxadiazole]: the Ki worked out at 163 nM.

`Cc1onc(-c2ccccc2)c1-c1nnc(-c2cccc(F)c2F)o1` [Example 84, 2-(2,3-Difluoro-phenyl)-5-(5-methyl-3-phenyl-isoxazol-4-yl)-[1,3,4]oxadiazole]: the Ki stood at 225 nM.
